Test results from patent US6617350B2, “Inhibitors of aspartyl protease” (priority 1999, dated 2003).
Read-outs that look alike come from different tables or passages of the source.

Experiments:
HIV-1 protease = HIV-1 protease (Human immunodeficiency virus type 1 group M subtype B, UniProt P04585); assay: biochemical
HIV-1 (strain IIIB) = assay: microbe, parasite or virus in culture; type: cell-based; settings: anti-viral potency in MT-4 cells, read-out: IC50
[1] = Table 12, HIV-1 protease, read-out: Ki
[2] = Human immunodeficiency virus 1, IIIB, MT4, Table 12

SMILES	Ki (HIV-1 protease; [1]) [nM]	IC50 (HIV-1 (strain IIIB); [2]) [nM]	Ki (HIV-1 protease) [nM]	IC50 (HIV-1 (strain IIIB); Table 12) [nM]
CNc1cccc(S(=O)(=O)N(C[C@@H](O)[C@H](Cc2ccccc2)NC(=O)O[C@H]2CO[C@H]3OCC[C@H]32)CC(C)(C)CCCCNC(=O)OC)c1 [Compound 246, (3R,3aS,6aR)hexahydrofuro[2,3-b]furan-3-yl N-[(1S,2R)-1-benzyl-2-hydroxy-3-(6-[(methoxycarbonyl)amino]-2,2-dimethylhexyl[3-(methylamino)phenyl]sulfonylamino)propyl]carbamate]	< 1	≤ 100		
CC(C)(CCC#N)CN(CC(O)C(Cc1ccccc1)NC(=O)OC1COC2OCCC12)S(=O)(=O)c1ccc(O)cc1 [Compound 35, {(1S,2R)-3-[(4-hydroxybenzenesulfonyl)-(4-cyano-2,2-dimethyl-butyl)-amino]-1-benzyl-2-hydroxy-propyl}-carbamic acid (2R,3aS,6aR)hexahydro-furo[2,3-b]furan-3-yl ester]	< 1	≤ 100		
CNC(=O)OCCCC(C)(C)CN(CC(O)[C@H](Cc1ccccc1)NC(=O)OC1COC2OCCC12)S(=O)(=O)c1ccc2c(c1)OCO2 (stereo partly drawn) [Compound 272, (3R,3aS,6aR)-Hexahydrofuro[2,3-b]furan-3-yl N-((1S,2R)-1-benzyl-3-[2,2-dimethyl-5-(N′-methylcarbamoyloxypentyl)][(3,4-methylenedioxyphenyl)sulfonyl]amino-2-hydroxypropyl)carbamate]		≤ 100	< 1	
COc1ccc(S(=O)(=O)N(CC(O)[C@H](Cc2ccccc2)NC(=O)OC2COC3OCCC23)CC(C)(C)CCC(C)=NO)cc1 (stereo partly drawn) [Compound 227, (3R,3aS,6aR)-Hexahydrofuro[2,3-b]furan-3-yl N-((1S,2R)-1-benzyl-3-(2,2-dimethyl-5-hydroxyiminohexyl)[(4-methoxyphenyl)sulfonyl]amino-2-hydroxypropyl)carbamate]	< 1	≤ 100		
COC(=O)CCC(C)(C)CN(C[C@@H](O)[C@H](Cc1ccccc1)NC(=O)OC1COCOC1)S(=O)(=O)c1ccc(OC)cc1 [Compound 274, {(1S,2R)-1-Benzyl-3-[(4-carbomethoxy-2,2-dimethyl-butyl)-(4-methoxy-benzenesulfonyl)-amino]-2-hydroxy-propyl}-carbamic acid[1,3]dioxan-5-yl ester]	< 1	100 to 500		
CC(C)(CCCCNS(C)(=O)=O)CN(C[C@@H](O)[C@H](Cc1ccccc1)NC(=O)O[C@H]1CO[C@H]2OCC[C@H]21)S(=O)(=O)c1ccc2c(c1)OCO2 [Compound 255, (3R,3aS,6aR)hexahydrofuro[2,3-b]furan-3-yl N-[(1S,2R)-3-((1,3-benzodioxol-5-ylsulfonyl)2,2-dimethyl-6-[(methylsulfonyl)amino]hexylamino)-1-benzyl-2-hydroxypropyl]carbamate]	< 1	≤ 100		
CC(C)(CCC#N)CN(C[C@@H](O)[C@H](Cc1ccccc1)NC(=O)OC1COCOC1)S(=O)(=O)c1ccc(OCc2ccccc2)cc1 [Compound 33, {(1S,2R)-1-Benzyl-3-[(4-cyano-2,2-dimethyl-butyl)-(4-benzyloxybenzenesulfonyl)-amino]-2-hydroxy-propyl}-carbamic acid[1,3]dioxan-5-yl ester]	10 to 100	500 to 1000		
CC(=O)CCC(C)(C)CN(CC(O)[C@H](Cc1ccccc1)NC(=O)OC1COC2OCCC12)S(=O)(=O)c1cccc(N)c1 (stereo partly shown) [Compound 253]	< 1	≤ 100		
CC(C)(CCC#N)CN(C[C@@H](O)[C@H](Cc1ccccc1)NC(=O)O[C@H]1CO[C@H]2OCC[C@H]21)S(=O)(=O)c1ccc2c(c1)OCO2 [Compound 25, {(1S,2R)-3-[(Benzo[1,3]dioxole-5-sulfonyl)-(4-cyano-2,2-dimethyl-butyl)-amino]-1-benzyl-2-hydroxy-propyl}-carbamic acid (3R, 3aS, 6aR)hexahydro-furo[2,3-b]furan-3-yl ester]	< 1	≤ 100		
COc1ccc(S(=O)(=O)N(CCCCC2(C)OCCO2)C[C@@H](O)[C@H](Cc2ccccc2)NC(=O)OC(C)(C)C)cc1 [Compound 204, tert-Butyl N-((1S,2R)-1-benzyl-2-hydroxy-3-[(4-methoxyphenyl)sulfonyl][4-(2-methyl-1,3-dioxolan-2-yl)butyl]aminopropyl)carbamate]	1 to 10			500 to 1000
COC(=O)NCCCC(C)(C)CN(CC(O)C(Cc1ccccc1)NC(=O)OC1COC2OCCC12)S(=O)(=O)c1ccc(OC)cc1 [Compound 213, (3R,3aS,6aR)hexahydrofuro[2,3-b]furan-3-yl N-((1S,2R)-1-benzyl-2-hydroxy-3-5-[(methoxycarbonyl)amino]-2,2-dimethylpentyl[(4-methoxyphenyl)sulfonyl]aminopropyl)carbamate and (3S,3aR,6aS)hexahydrofuro[2,3-b]furan-3-yl N-((1S,2R)-1-benzyl-2-hydroxy-3-5-[(methoxycarbonyl)amino]-2,2-dimethylpentyl[(4-methoxyphenyl)sulfonyl]aminopropyl)carbamate]	< 1	≤ 100		
CC(C)(CCC#N)CN(CC(O)C(Cc1ccccc1)NC(=O)OC1COC2OCCC12)S(=O)(=O)c1ccc2c(c1)OCCO2 (stereo not shown) [Compound 41]	< 1			≤ 100
CNc1cccc(S(=O)(=O)N(C[C@@H](O)[C@H](Cc2ccccc2)NC(=O)O[C@H]2CO[C@H]3OCC[C@H]32)CC(C)(C)CCCN)c1 [Compound 258, (3R,3aS,6aR)hexahydrofuro[2,3-b]furan-3-yl N-[(1S,2R)-3-((5-amino-2,2-dimethylpentyl)[3-(methylamino)phenyl]sulfonylamino)-1-benzyl-2-hydroxypropyl]carbamate]	< 1	100 to 500		
COC(=N[N+](=O)[O-])NCCC(C)(C)CN(CC(O)C(Cc1ccccc1)NC(=O)OC1COC2OCCC12)S(=O)(=O)c1ccc(OC)cc1 (stereo not shown) [Compound 223]	< 1	≤ 100		
CC(C)(CCC#N)CN(CC(O)C(Cc1ccccc1)NC(=O)OC1COC2OCCC12)S(=O)(=O)c1ccc(OCc2ccccc2)cc1 [Compound 32, {(1S,2R)-3-[(4-benzyloxybenzenesulfonyl)-(4-cyano-2,2-dimethyl-butyl)-amino]-1-benzyl-2-hydroxy-propyl}-carbamic acid (2R,3aS,6aR)hexahydro-furo[2,3-b]furan-3-yl ester]	< 1	100 to 500		
COC(=O)NCCCC(C)(C)CN(C[C@@H](O)[C@H](Cc1ccccc1)NC(=O)O[C@H]1CO[C@H]2OCC[C@H]21)S(=O)(=O)c1ccc2c(c1)OCCO2 [Compound 265, (3R,3aS,6aR)hexahydrofuro[2,3-b]furan-3-yl N-[(1S,2R)-1-benzyl-3-((2,3-dihydro-1,4-benzodioxin-6-ylsulfonyl)5-[(methoxycarbonyl)amino]-2,2-dimethylpentylamino)-2-hydroxypropyl]carbamate]	< 1	≤ 100		
COc1ccc(S(=O)(=O)N(CCCCC(C)=O)C[C@@H](O)[C@H](Cc2ccccc2)NC(=O)O[C@H]2CCOC2)cc1 [Compound 205, (3S)-Tetrahydro-3-furanyl N-(1S,2R)-1-benzyl-2-hydroxy-3-[[(4-methoxyphenyl)sulfonyl](5-oxohexyl)amino]-propylcarbamate]	< 1	500 to 1000		
